Where “and” joins values, the source holds several entries; their conditions need not be identical. Identical values can stand only once.
Key:
[1] = biological target: T1, human recombinant CAVI (Homo sapiens, UniProt P23280); experiment: Fluorescence-based thermal shift assay (FTSA), CAVI; type: binding; conditions: 37 °C, pH 7.0
T1 construct: Most isozymes were truncated, and only the catalytic domains of the proteins were produced; made in house; host or cells: bacterial expression system
Description: (§1) The binding affinities of the four NIR-fluorescent compounds to 12 catalytically active recombinant CA isozymes were determined by the fluorescence-based thermal shift assay (FTSA), and the dissociation constants (Kd’s) at physiological pH (pH 7.0) and 37 °C are listed in Table 1.
(§2) All 12 catalytically active human CA isozymes were prepared recombinantly as previously described. Most isozymes were truncated, and only the catalytic domains of the proteins were produced.[9],[56] All isozymes were expressed in a bacterial expression system except that CAIX was expressed in mammalian cells. The proteins were chromatographically purified via immobilized metal affinity chromatography, ion-exchange, or p-aminomethylbenzenesulfonamide-sepharose affinity chromatography. Protein purity was confirmed by SDS-PAGE, and MW was confirmed by mass spectrometry with 1 Da precision, as predicted from theoretical protein sequence.
(§3) The fluorescence-based thermal shift assay (FTSA) was used to determine the binding affinity of compounds for all catalytically active CA isozymes. The assay is based on the thermal stabilization of proteins by bound ligands and distinguishes itself in its ability to determine extremely high affinity (picomolar Kd) of compound binding to CAIX. The experiments were performed with a QIAGEN Rotor-Gene Q instrument using either the blue channel (365 ± 20 nm excitation and 460 ± 15 nm emission detection) or the green channel (470 ± 10 nm excitation and 510 ± 5 nm detection). The protein solution, in the absence and presence of various compound concentrations ranging from 3 to 200 μM (2× dilutions), was heated from 25 to 99 °C (heating rate, 1 °C/min). The CA isozyme melting temperature Tm was determined by following the fluorescence of 8-anilino-1-naphthalenesulfonate (ANS) or Glomelt dye. The samples consisted of 5 μM protein (or 10 μM CAIV), different concentrations of the tested compound, and 50 μM ANS or 200× diluted Glomelt in 50 mM sodium phosphate buffer (at pH 7.0) containing 100 mM sodium chloride and 2–4% (v/v) dimethyl sulfoxide. To obtain the dissociation constant (at 37 °C), data analysis was performed, and the curves were fit using the Thermott Web server.[57]

[2] = biological target: T2, human recombinant CAIX (Homo sapiens, UniProt Q16790); experiment: Fluorescence-based thermal shift assay (FTSA), CAIX; type: binding; conditions: 37 °C, pH 7.0
T2 construct: Most isozymes were truncated, and only the catalytic domains of the proteins were produced; made in house; host or cells: mammalian cells
Description: as §1, §2, §3

[3] = biological target: T3, CAIX expressed on cell membranes of HeLa cells (Homo sapiens, UniProt Q16790); experiment: Fluorescence microscopy staining of live HeLa cells; type: cell-based; conditions: for staining of HeLa cells (NIR fluorescence microscopy): 250 nM compound, pCMV-CAIX-transfected cells, normoxia
T3 construct: an open reading frame for the full-length CAIX protein (1–459 amino acids) without a tag; expressed in transfected cells; host or cells: HeLa cells transfected with pCMV-CAIX (TurboFect), normoxia
From the text: Live HeLa cell culture was used for visualization of the NIR-fluorescent compound binding to CAIX expressed on cell membranes (Figures 3 and S2). […] Hypoxic conditions were insufficient for CAIX-specific fluorescence detection (Figure S3). Transfected cells expressed 10-fold more CAIX protein than cells grown under hypoxia, as determined by dosing the fluorescein-containing compound GZ19-32. […] We should point out that microphotographs in Figures 3 and S2 were taken at different exposure times to ensure good visualization quality. Nevertheless, all four compounds were suitable for direct visualization of CAIX expressed on transfected cell membranes.
For visualization of CAIX in live cells, HeLa cells were seeded in 12-well plates, and the next day they were transfected with the pCMV-CAIX plasmid to induce CAIX expression under normoxia. The TurboFect Transfection Reagent (Thermo Fisher) was used for this purpose according to manufacturer’s directions. Cells were stained and visualized next day after transfection. Nontransfected cells, grown under normoxia, were used as a control. For the induction of CAIX expression without transfection, cells were cultured under hypoxia for 3 days.
For cell imaging, live cells were incubated with the recombinant monoclonal antibody to CAIX (M75) (Absolute Antibody, #Ab00414–1.1) in the CO2 incubator for 30 min. The antibody stock solution (1 mg/mL) was used at a dilution of 1:150 in FluoroBright (FB)(Thermo Fisher) medium. After washing (3 × 5 min with DMEM in RT, gentle rock), cells were incubated with secondary Alexa Fluor 488 goat antimouse antibodies (2 mg/mL, Thermo Fisher), at a dilution of 1:200 in FB, in a CO2 incubator for 30 min. After washing (3 × 5 min with DMEM in RT and 2 × 1 min with PBS), cells were incubated with NIR-fluorescent inhibitors ([…] in PBS) in a CO2 incubator for 5–8 min. After washing (2 min + 2 × 1 min with PBS), PBS was replaced by FB, and 15 μL of NucBlue Live Cell Stain ReadyProbes reagent (Thermo Fisher) was added per well. After 5 min, cells were observed and photographed using an automated fluorescence microscope EVOS FL Auto (Thermo Fisher).

[4] = biological target: T4, cell-expressed CAIX (HeLa cells grown under hypoxia) (Homo sapiens, UniProt Q16790); experiment: Competition assay with fluorescein-labeled GZ19-32 in live hypoxia-grown HeLa cells; type: binding; conditions: 10 nM GZ19-32, Pt 2 nM CAIX
T4 construct: The cells were grown under hypoxia and not transfected; endogenous in cells; host or cells: HeLa cells, 3 days under hypoxia, not transfected
Description: Hypoxia-grown HeLa cell culture expressed approximately 2 nM CAIX, which was quantified by fluorescein-labeled GZ19-32 added at a constant concentration of 10 nM throughout the assay. The four NIR-fluorescent compounds were dosed and competed with the GZ19-32 compound in a dose-dependent manner. At high concentrations, all four compounds fully outcompeted the fluorescein-bearing compound yielding nice competition curves (Figure 2B). Each curve was fit using the total protein CAIX (Pt) value of 2 nM, and the Kd of GZ19-32 was 200 pM. The dissociation constants for each NIR-fluorescent compound were 4 nM for GZ21-19, 6 nM for GZ22-1, 1.5 nM for GZ22-4, and 15 nM for AZ21-6. Thus, compound affinities were similar but not identical, despite having identical headgroups. […] The affinity of fluorescein-bearing GZ19-32 was the highest of all, around 200 pM.
For the competition assay, live cells were seeded in 12-well plates and incubated for 3 days under hypoxia. 200 μL of serially diluted NIR-fluorescent compound (12 2-fold dilution steps) in the PBS medium, starting from 5120 nM (5120, 2560, 1280,..., 0 nM), was mixed with 200 μL of 20 nM GZ19-32 solution (PBS). After the removal of growth medium, 200 μL obtained solutions were applied to the cells grown in 12-well culture plates. Plates were incubated in the CO2 incubator at normoxia for 20 min. The solution was removed, and cells were washed 3 times for 1–2 min with 400 μL of PBS. Then, 180 μL of TrypLe express enzyme (Thermo Fisher) was added to each well and incubated in the normoxia chamber for 10 min. Then, 20 μL of Defined Trypsin Inhibitor solution (Thermo Fisher) was added and cells were resuspended by pipetting. 150 μL of the suspension from each well was transferred to Thermo Scientific Nunc MicroWell 96-Well Optical-Bottom Plates for fluorescence and absorbance measurements. 485 nm excitation and 520 nm emission wavelengths were used to measure fluorescence on a Synergy HTX, BioTek plate reader. 650 nm wavelength was used for absorbance measurements.

T1 sequence (P23280 21-278 limits assumed): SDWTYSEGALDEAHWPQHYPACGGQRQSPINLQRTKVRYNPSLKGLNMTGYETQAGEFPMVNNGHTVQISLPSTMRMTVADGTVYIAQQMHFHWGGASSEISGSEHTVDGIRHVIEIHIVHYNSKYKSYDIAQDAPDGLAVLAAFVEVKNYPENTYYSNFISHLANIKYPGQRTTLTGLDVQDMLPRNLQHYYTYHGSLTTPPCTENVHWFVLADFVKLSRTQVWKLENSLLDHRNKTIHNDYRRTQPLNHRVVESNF

| Kd [1] [nM] | Kd [2] | Kd [4] [nM] | fluorescence signal compared to the other compounds at identical exposure conditions ([3]; 250 nM, transfected HeLa, Cy7 filter) | SMILES | staining of HeLa cells (NIR fluorescence microscopy) [3] |
| --- | --- | --- | --- | --- | --- |
| 1000 | 0.3 nM | 15 | – | CC1(C)C(/C=C/C2=C(NCCCOCCOCCOCCCNC(=O)CCC(=O)NCCS(=O)(=O)c3c(F)c(F)c(S(N)(=O)=O)c(F)c3NC3CCCCCCC3)C(=C/C=C3\N(CCCCS(=O)(=O)[O-])c4ccccc4C3(C)C)/CCC2)=[N+](CCCCS(=O)(=O)[O-])c2ccccc21.[Na+] [AZ21-6, Sodium 4-((Z)-2-((E)-2-(2-((1-((2-(Cyclooctylamino)-3,5,6-trifluoro-4-sulfamoylphenyl)sulfonyl)-4,7-dioxo-12,15,18-trioxa-3,8-diazahenicosan-21-yl)amino)-3-((E)-2-(3,3-dimethyl-1-(4-sulfonatobutyl)-3H-indol-1-ium-2-yl)vinyl)cyclohex-2-en-1-ylidene)ethylidene)-3,3-dimethylindolin-1-yl)butane-1-sulfonate] | stained the membranes of pCMV-CAIX-transfected cells |
| 700 | 0.2 nM | 4 | – | CC1(C)C(/C=C/C2=C(Oc3cccc(CC(=O)NCCCOCCOCCOCCCNC(=O)CCS(=O)(=O)c4c(F)c(F)c(S(N)(=O)=O)c(F)c4NC4CCCCCCC4)c3)C(=C/C=C3\N(CCCCS(=O)(=O)[O-])c4ccccc4C3(C)C)/CCC2)=[N+](CCCCS(=O)(=O)[O-])c2ccccc21.[Na+] [GZ21-19, Sodium 4-((Z)-2-((E)-2-(2-(3-(20-((2-(Cyclooctylamino)-3,5,6-trifluoro-4-sulfamoylphenyl)sulfonyl)-2,18-dioxo-7,10,13-trioxa-3,17-diazaicosyl)phenoxy)-3-((E)-2-(3,3-dimethyl-1-(4-sulfonatobutyl)-3H-indol-1-ium-2-yl)vinyl)cyclohex-2-en-1-ylidene)ethylidene)-3,3-dimethylindolin-1-yl)butane-1-sulfonate] | stained the membranes of pCMV-CAIX-transfected cells |
| 700 | 0.3 nM | 6 | – | CC1(C)C(/C=C/C2=C(Oc3ccc(CCC(=O)NCCCOCCOCCOCCCNC(=O)CCS(=O)(=O)c4c(F)c(F)c(S(N)(=O)=O)c(F)c4NC4CCCCCCC4)cc3)C(=C/C=C3\N(CCCCS(=O)(=O)[O-])c4ccccc4C3(C)C)/CCC2)=[N+](CCCCS(=O)(=O)[O-])c2ccccc21.[Na+] [GZ22-1, Sodium 4-((Z)-2-((E)-2-(2-(4-(21-((2-(Cyclooctylamino)-3,5,6-trifluoro-4-sulfamoylphenyl)sulfonyl)-3,19-dioxo-8,11,14-trioxa-4,18-diazahenicosyl)phenoxy)-3-((E)-2-(3,3-dimethyl-1-(4-sulfonatobutyl)-3H-indol-1-ium-2-yl)vinyl)cyclohex-2-en-1-ylidene)ethylidene)-3,3-dimethylindolin-1-yl)butane-1-sulfonate] | stained the membranes of pCMV-CAIX-transfected cells |
| 500 | 0.17 nM and 0.2 nM | 1.5 | best fluorescence signal | CC1(C)C(/C=C/C2=C(Oc3ccc(CCC(=O)NCCOCCOCCOCCOCCOCCOCCOCCOCCOCCOCCOCCNC(=O)CCS(=O)(=O)c4c(F)c(F)c(S(N)(=O)=O)c(F)c4NC4CCCCCCC4)cc3)C(=C/C=C3\N(CCCCS(=O)(=O)[O-])c4ccccc4C3(C)C)/CCC2)=[N+](CCCCS(=O)(=O)[O-])c2ccccc21.[Na+] [GZ22-4, Sodium 4-((Z)-2-((E)-2-(2-(4-(43-((2-(Cyclooctylamino)-3,5,6-trifluoro-4-sulfamoylphenyl)sulfonyl)-3,41-dioxo-7,10,13,16,19,22,25,28,31,34,37-undecaoxa-4,40-diazatritetracontyl)phenoxy)-3-((E)-2-(3,3-dimethyl-1-(4-sulfonatobutyl)-3H-indol-1-ium-2-yl)vinyl)cyclohex-2-en-1-ylidene)ethylidene)-3,3-dimethylindolin-1-yl)butane-1-sulfonate] | stained the membranes of pCMV-CAIX-transfected cells |

Reference: article PMC11191402, “High-Affinity NIR-Fluorescent Inhibitors for Tumor Imaging via Carbonic Anhydrase IX” (Bioconjugate Chemistry, 2024)
